The values below are quoted from earlier work in patent US20050227929A1, “Combination therapy comprising a Cox-2 inhibitor and an antineoplastic agent” (priority 2003, published 2005).

For data set [1] the following is noted: human, in vivo.
The subject of a further data set is tumors. Conditions: tumor-bearing mice received 225-300 μg/kg over 5 days.

Where two headings read alike, the source gives them in different places. Where a SMILES comes first, the peptide text is derived from it.

As to `CNC(=O)c1cc(Oc2ccc(NC(=O)Nc3ccc(Cl)c(C(F)(F)F)c3)cc2)ccn1` [BAY-439006], for the setting “dosage listed: 50-400 mg/day”, the Toxicity result is listed as “well tolerated”.

As for `N[C@@H](CCC(=O)O)C(=O)N[C@@H](Cc1c[nH]c2ccccc12)C(=O)O` [IM 862, L-alpha-glutamyl-L-tryptophan] (H-Glu-Trp-OH), the Toxicity result (in vivo) was “no hematological”. As for `COc1ccc(NS(=O)(=O)c2c(F)c(F)c(F)c(F)c2F)cc1F` [T138067, 2,3,4,5,6-pentafluoro-N-(3-fluoro-4-methoxyphenyl)benzenesulfonamide], the “Dosage: tolerability” value (up to 440 mg/m^2 by 3-hour infusion every 4 weeks) was “well tolerated”.

For the molecule `CC(C)[C@H]1C(=O)N[C@@H](CCCN=C(N)N)C(=O)NCC(=O)N[C@@H](CC(=O)O)C(=O)N[C@H](Cc2ccccc2)C(=O)N1C` [cilengitide, cyclo(L-arginylglycyl-L-alpha-aspartyl-D-phenylalanyl-N-methyl-L-valyl)], the Toxicity result in data set [1] is “well tolerated and safe”. Take `Cc1occc(=O)c1[O-].Cc1occc(=O)c1[O-].Cc1occc(=O)c1[O-].[Ga+3]` [gallium maltolate]: the Toxicity entry (in vivo) is on record as “good safety”. As to `Cc1ccc2nc(N)[nH]c(=O)c2c1Sc1ccncc1` [nolatrexed, 2-amino-6-methyl-5-(4-pyridinylthio)-4(1H)-quinazolinone], the “Dosage: tolerability” value in data set [1] is given as “tumors is well”.

Regarding `O=S1(=O)CCN(CN2CCS(=O)(=O)NC2)CN1` [taurolidine, 4,4′-methylenebis[tetrahydro-2H-1,2,4-thiadiazine]1,1,1′,1′-tetraoxide], the “Dosage: tolerability” value (in vivo, 350 mg/kg/day) is “well tolerated”.

Consider `Nc1ccn([C@@H]2O[C@H](CO)[C@@H](O)/C2=C\F)c(=O)n1` [tezacitabine], for which the Toxicity result in data set [1] is listed as “generally”.

B1: SB-408075 (conjugate, chains of the INN, looked up)
VH: QVQLVQSGAEVKKPGETVKISCKASDYTFTYYGMNWVKQAPGQGLKWMGWIDTTTGEPTYAQKFQGRIAFSLETSASTAYLQIKSLKSEDTATYFCARRGPYNWYFDVWGQGTTVTVSS
VL: DIVMTQSPLSVPVTPGEPVSISCRSSKSLLHSNGNTYLYWFLQRPGQSPQLLIYRMSNLVSGVPDRFSGSGSGTAFTLRISRVEAEDVGVYYCLQHLEYPFTFGPGTKLELK
modifications: DM1 maytansinoid payload
For B1, in the data set on tumors, the “complete responses seen in % of animals” value is “in 100% of”.
